responders, logP and melting point data for 15 molecules are collected here from patent US20030186997A1, “2,5-Dihydro-pyrazolo[3,4-d]pyrimidin-4-ones with an anticonsulsive action and methods for producing the same” (priority 2000, published 2003).

Data set [1] has as its system maximal electroshock. Put plainly: Anticonvulsant action, maximal electroshock (MES), mouse i.p. Format: in vivo. Conditions: ip, read-out: Action in % of the protected animals. On the procedure: (§1) The compounds according to the invention were tested for their anticonvulsant action in vivo after i.p. administration to mice according to the international customary standard (Pharmac. Weekblad, Sc. Ed. 14, 132 (1992) and Antiepileptic Drugs, Third Ed., Raven Press, New York 1989) (Table 1). [table]
(In general: Protection in the maximal electroshock model is a classic sign of anticonvulsant action.)

For data set [2], the system named is s.c. pentetrazole. Put plainly: Anticonvulsant action, s.c. pentetrazole (PTZ), mouse i.p. The conditions noted are these: ip, read-out: Action in % of the protected animals. It is filed as in vivo. On the procedure:
as §1

A short description of data set [3]: Octanol/water partition coefficient. Format: physicochemical.

For the molecule `NC(=O)N1c2ccccc2C=Cc2ccccc21` [Carbamazepine, reference compound], the values for the responders at 100 mg/kg in data set [1] and in data set [2] were 100% and 0%, respectively.
With `Cc1ccccc1Cn1cnc2n[nH]cc2c1=O` [Compound 6, 5-(2-methylbenzyl)-2,5-dihydropyrazolo[3,4-d]pyrimidin-4-one], the melting point was 221 to 222 °C. For the same molecule, the responders at 100 mg/kg in data set [1] was found to be 67%. The responders at 300 mg/kg in data set [2] is 100%. In data set [3], this molecule returned a logP of 1.36.
For `CCn1cc2c(=O)n(Cc3c(F)cccc3F)cnc2n1` [Compound 37, 5-(2,6-difluorobenzyl)-2-ethyl-2,5-dihydropyrazolo[3,4-d]-pyrimidin-4-one], the melting point was 185 to 187 °C. In data set [1], the responders at 100 mg/kg is 80%. Further, the responders at 300 mg/kg in data set [2] came to 20%. This molecule also showed a logP in data set [3] of 1.43.
Take `CCCC(CCC)C(=O)O` [Valproate, reference compound]: the responders at 100 mg/kg amounted to 0% in data set [1] and 30% in data set [2].
As to `O=c1c2c[nH]nc2ncn1Cc1c(F)cccc1F` [Compound 5, 5-(2,6-difluorobenzyl)-2,5-dihydropyrazolo[3,4-d]-pyrimidin-4-one], the melting point lay in the range of 214 to 216 °C. The responders at 30 mg/kg in data set [1] worked out at 100%. Also, the logP in data set [3] stood at 0.28.
Molecule `O=c1c2c[nH]nc2ncn1Cc1ccc(Cl)cc1` [Compound 2, 5-(4-chlorobenzyl)-2,5-dihydropyrazolo[3,4-d]pyrimidin-4-one] showed a melting point of 246 to 247 °C. Besides, the responders at 100 mg/kg in data set [1] amounted to 33%. The log partition coefficient (logP) in data set [3] came to 1.34.
`Cn1cc2c(=O)n(Cc3ccccc3)cnc2n1` [Compound 13, 5-benzyl-2-methyl-2,5-dihydropyrazolo[3,4-d]pyrimidin-4-one]: the melting point lay in the range of 202 to 204 °C. The responders at 100 mg/kg in data set [1] was 100%. Moreover, in data set [3], the logP is 0.72.
Regarding `O=c1c2cn(Cc3ccccc3Cl)nc2ncn1Cc1ccccc1Cl` [Compound 58, 2,5-bis(2-chlorobenzyl)-2,5-dihydropyrazolo[3,4-d]-pyrimidin-4-one], the melting point lay within 167 to 168 °C. In data set [3], this molecule came in with a logP of 2.59.
For the molecule `O=c1c2cn(CC3CCCO3)nc2ncn1Cc1ccccc1Cl` (stereo not drawn) [Compound 60, 5-(2-chlorobenzyl)-2-tetrahydrofuran-2-ylmethyl-2,5-dihydropyrazolo[3,4-d]pyrimidin-4-one], the melting point fell in the range of 128 to 130 °C. For the same molecule, the responders at 100 mg/kg in data set [1] is 67%. Besides, the logP in data set [3] was found to be 1.67.
Regarding `Cn1cc2c(=O)n(Cc3cccc(Cl)c3)cnc2n1` [Compound 19, 5-(3-chlorobenzyl) -2-methyl-2,5-dihydropyrazolo[3,4-d]-pyrimidin-4-one], the melting point fell in the range of 169 to 170 °C. Moreover, the responders at 100 mg/kg in data set [1] came to 100%. Moreover, the logP in data set [3] came out at 1.56.
For `O=c1c2c[nH]nc2ncn1Cc1ccccc1` [5-benzyl-2,5-dihydropyrazolo[3,4-d]pyrimidin-4-one, reference compound], the responders at 30 mg/kg in data set [1] and in data set [2] (dose 30 mg/kg) was 100% in each case. The same molecule had a logP in data set [3] of 0.47.
Molecule `O=c1c2cn(-c3ccccc3)nc2ncn1Cc1c(F)cccc1Cl` [Compound 50, 5-(2-chloro-6-fluorobenzyl)-2-phenyl-2,5-dihydropyrazolo[3,4-d]pyrimidin-4-one] gave a melting point of 195 to 197 °C.
Same read-out and setting: the result for `CC(C)n1cc2c(=O)n(Cc3ccccn3)cnc2n1` [Compound 46, 5-(2-pyridinylmethyl)-2-isopropyl-2,5-dihydropyrazolo[3,4-d]pyrimidin-4-one] reads 163 to 164 °C; that for `Cc1ccc(Cn2cnc3nn(Cc4ccccc4)cc3c2=O)cc1` [Compound 55, 5-(4-methylbenzyl)-2-benzyl-2,5-dihydropyrazolo[3,4-d]-pyrimidin-4-one], 167 to 169 °C.
With `Cn1cc2c(=O)n(Cc3ccccn3)cnc2n1` [Compound 33, 5-(2-pyridinylmethyl)-2-methyl-2,5-dihydropyrazolo[3,4-d]-pyrimidin-4-one], the melting point lay in the range of 203 to 205 °C.

One may read the logP as the decadic logarithm of the partition coefficient of the neutral form, usually between octanol and water. A high value points to a more lipophilic compound. The term melting point denotes the temperature of the solid-liquid transition.
